ChEMBL document CHEMBL5537116, “Synthesis and structure-activity optimization of hydroxypyridinones against rhabdomyolysis-induced acute kidney injury” (Eur J Med Chem, 2024)
Calls of active or inactive are those of the source. The rule behind the calls is not given here.

Columns and labels:
[1] = Cytotoxicity against human HK-2 cells assessed as cell growth inhibition incubated for 48 hrs by SRB assay; assay type: toxicity, cell-based
[2] = Competitive binding affinity to Fe3+ ion assessed as metal chelating activity by measuring binding constant by calcein probe based fluorescence displacement assay
HK-2 [3] = assay: Inhibition of RSL-3 induced ferroptosis in human HK-2 cells incubated for 48 hrs in presence of FAC; assay type: functional, cell-based; settings: HK-2, 48 h
[4] = Antioxidant activity assessed as ABTS radical scavenging activity incubated for 6 mins by absorbance based microplate reader analysis; assay type: functional
[5] = Potency index, ratio of trolox IC50 to test compound IC50 for antioxidant activity assessed as ABTS radical scavenging activity incubated for 6 mins by absorbance based microplate reader analysis; assay type: functional
HK-2 [6] = assay: Anti-ferroptotic activity against RSL3-induced ferroptosis in human HK-2 cells assessed as decrease in lipid peroxidation by measuring fluorescent intensity preincubated with FAC for 2 hrs followed by compound addition and measured after 12 hrs by flow cytometry analysis; assay type: functional, cell-based
[7] = Sub-acute in C57BL/6 mouse assessed as animal death at 1 mg/kg, ip measured on day 2; assay type: toxicity, organism-based; settings: in vivo, 48 h, time 2 day
Mus musculus [8] = assay: Reno-protective activity against glycerol-induced rhabdomyolysis acute kidney injury C57BL/6 mouse model assessed as decrease in BUN level at 50 mg/kg, ip preadministered with every 12 hrs of compound for 5 times in first three days with subsequent 1 hrs compound treatment after 16 hrs of water deprivation followed by glycerol administration and measured on day 5; assay type: functional; design: scale not given: the % may be the effect or the level left; settings: time 5 day
Mus musculus [9] = assay: Reno-protective activity against glycerol-induced rhabdomyolysis acute kidney injury C57BL/6 mouse model assessed as decrease in serum creatinine level at 50 mg/kg, ip preadministered with every 12 hrs of compound for 5 times in first three days with subsequent 1 hrs compound treatment after 16 hrs of water deprivation followed by glycerol administration and measured on day 5; assay type: functional; design: scale not given: the % may be the effect or the level left; settings: time 5 day
HK-2 [10] = assay: Upregulation in intracellular HIF-1alpha level in human HK-2 cells at 50 uM under normoxia condition incubated for 12 hrs by Western blot analysis; assay type: functional, cell-based
[11] = Sub-acute in C57BL/6 mouse assessed as poisoning symptoms at 1 mg/kg, ip measured for 7 days; assay type: toxicity, organism-based; settings: in vivo, 168 h, time 7 day
[12] = target: Hypoxia-inducible factor 1-alpha (Homo sapiens) (UniProt Q16665); assay: Induction of HIF-1alpha stabilization in human HK-2 cells by Western blotting analysis; assay type: cell-based; settings: dose 5-20 µM
[13] = Sub-acute in C57BL/6 mouse assessed as change in body weight at 200 mg/kg, ip measured for 7 days; assay type: toxicity, organism-based; settings: in vivo, 168 h, time 7 day
Mus musculus [14] = assay: Reno-protective activity against glycerol-induced rhabdomyolysis acute kidney injury C57BL/6 mouse model assessed as decrease in BUN level at 10 mg/kg, ip preadministered with every 12 hrs of compound for 5 times in first three days with subsequent 1 hrs compound treatment after 16 hrs of water deprivation followed by glycerol administration and measured on day 5; assay type: functional; design: scale not given: the % may be the effect or the level left; settings: time 5 day
Mus musculus [15] = assay: Reno-protective activity against glycerol-induced rhabdomyolysis acute kidney injury C57BL/6 mouse model assessed as decrease in serum creatinine level at 10 mg/kg, ip preadministered with every 12 hrs of compound for 5 times in first three days with subsequent 1 hrs compound treatment after 16 hrs of water deprivation followed by glycerol administration and measured on day 5; assay type: functional; design: scale not given: the % may be the effect or the level left; settings: time 5 day
[16] = Sub-acute in C57BL/6 mouse assessed as animal death at 1 mg/kg, ip measured for 7 days; assay type: toxicity, organism-based; settings: in vivo, 168 h, time 7 day
Mus musculus [17] = assay: Reno-protective activity against glycerol-induced rhabdomyolysis acute kidney injury C57BL/6 mouse model assessed as decrease in BUN level at 4 to 10 mg/kg, ip preadministered with every 12 hrs of compound for 5 times in first three days with subsequent 1 hrs compound treatment after 16 hrs of water deprivation followed by glycerol administration and measured on day 5; assay type: functional, organism-based; settings: dose 4-10 mg/kg, time 5.0 day
Mus musculus [18] = assay: Reno-protective activity against glycerol-induced rhabdomyolysis acute kidney injury C57BL/6 mouse model assessed as decrease in serum creatinine level at 4 to 10 mg/kg, ip preadministered with every 12 hrs of compound for 5 times in first three days with subsequent 1 hrs compound treatment after 16 hrs of water deprivation followed by glycerol administration and measured on day 5; assay type: functional, organism-based; settings: dose 4-10 mg/kg, time 5.0 day
Mus musculus [19] = assay: Reno-protective activity against glycerol-induced rhabdomyolysis acute kidney injury C57BL/6 mouse model assessed as downregulation of […] mRNA expression at 4 to 10 mg/kg, ip preadministered with every 12 hrs of compound for 5 times in first three days with subsequent 1 hrs compound treatment after 16 hrs of water deprivation followed by glycerol administration and measured on day 5 by qRT-PCR analysis; assay type: functional, organism-based; settings: dose 4-10 mg/kg, time 5.0 day
Mus musculus [20] = assay: Upregulation of HIF-1alpha expression in C57BL/6 mouse kidney at 50 mg/kg, ip administered for every 12 hrs for 3 days and measured after 5 days; assay type: functional, organism-based
Mus musculus [21] = assay: Reno-protective activity against glycerol-induced rhabdomyolysis acute kidney injury C57BL/6 mouse model assessed as downregulation of Ptgs2 mRNA expression at 4 to 10 mg/kg, ip preadministered with every 12 hrs of compound for 5 times in first three days with subsequent 1 hrs compound treatment after 16 hrs of water deprivation followed by glycerol administration and measured on day 5 by qRT-PCR analysis; assay type: functional, organism-based; settings: dose 4-10 mg/kg, time 5.0 day
[22] = Toxicity in C57BL/6 mouse assessed as kidney damage at 10 mg/kg, ip measured for 3 days by H and E staining based analysis; assay type: organism-based; settings: in vivo, 72 h, time 3 day
Mus musculus [23] = assay: Reno-protective activity against glycerol-induced rhabdomyolysis acute kidney injury C57BL/6 mouse model assessed as decrease in iron accumulation in kidney at 4 to 10 mg/kg, ip preadministered with every 12 hrs of compound for 5 times in first three days with subsequent 1 hrs compound treatment after 16 hrs of water deprivation followed by glycerol administration and measured on day 5; assay type: functional, organism-based; settings: dose 4-10 mg/kg, time 5.0 day
Mus musculus [24] = assay: Reno-protective activity against glycerol-induced rhabdomyolysis acute kidney injury C57BL/6 mouse model assessed as decrease in serum creatinine level at 4 mg/kg, ip preadministered with every 12 hrs of compound for 5 times in first three days with subsequent 1 hrs compound treatment after 16 hrs of water deprivation followed by glycerol administration and measured on day 5; assay type: functional; design: scale not given: the % may be the effect or the level left; settings: time 5 day
HK-2 [25] = assay: Upregulation in intracellular HIF-1alpha level in human HK-2 cells at 20 uM under normoxia condition incubated for 12 hrs by Western blot analysis; assay type: functional, cell-based
Mus musculus [26] = assay: Reno-protective activity against glycerol-induced rhabdomyolysis acute kidney injury C57BL/6 mouse model assessed as decrease in BUN level at 4 mg/kg, ip preadministered with every 12 hrs of compound for 5 times in first three days with subsequent 1 hrs compound treatment after 16 hrs of water deprivation followed by glycerol administration and measured on day 5; assay type: functional; design: scale not given: the % may be the effect or the level left; settings: time 5 day

Hypoxia-inducible factor 1-alpha (Homo sapiens), sequence (Q16665 whole entry, looked up): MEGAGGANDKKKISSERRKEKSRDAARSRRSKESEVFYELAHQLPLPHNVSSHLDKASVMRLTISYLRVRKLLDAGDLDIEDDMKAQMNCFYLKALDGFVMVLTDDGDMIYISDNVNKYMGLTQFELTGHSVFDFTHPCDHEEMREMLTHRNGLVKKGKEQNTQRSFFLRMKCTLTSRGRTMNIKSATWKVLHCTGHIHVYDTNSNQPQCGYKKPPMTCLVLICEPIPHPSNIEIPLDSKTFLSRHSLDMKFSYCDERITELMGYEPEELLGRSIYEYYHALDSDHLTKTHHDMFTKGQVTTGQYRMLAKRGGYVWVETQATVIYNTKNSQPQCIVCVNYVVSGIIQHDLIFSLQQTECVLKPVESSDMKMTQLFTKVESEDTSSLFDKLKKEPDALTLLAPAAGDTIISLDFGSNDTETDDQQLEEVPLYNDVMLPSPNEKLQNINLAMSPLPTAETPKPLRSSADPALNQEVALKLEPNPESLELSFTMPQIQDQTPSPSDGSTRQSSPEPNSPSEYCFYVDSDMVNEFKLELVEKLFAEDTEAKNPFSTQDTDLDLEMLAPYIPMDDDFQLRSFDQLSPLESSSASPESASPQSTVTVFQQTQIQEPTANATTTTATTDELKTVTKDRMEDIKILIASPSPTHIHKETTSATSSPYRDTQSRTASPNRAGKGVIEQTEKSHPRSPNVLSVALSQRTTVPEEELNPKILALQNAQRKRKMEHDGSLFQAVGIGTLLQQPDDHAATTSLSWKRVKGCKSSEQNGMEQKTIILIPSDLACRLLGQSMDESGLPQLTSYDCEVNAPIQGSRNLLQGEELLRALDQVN

Compound | CC50 at 48 h [1] [µM] | Kb [2] | EC50 (HK-2 [3]) [µM] | also measured
Cc1c(O)c(=O)ccn1-c1ccc(NCCN2CCN(C)CC2)cc1 | > 100 | 1.22 10^22/M | 44 | 
Cc1c(O)c(=O)ccn1-c1ccc(OCCCN2CCOCC2)cc1 | 78 | 1.23 10^22/M | 20 | IC50 [4]: 17.2 µM; Ratio IC50 [5]: 1.5; Activity (HK-2 [6]): Active
Cc1c(O)c(=O)ccn1CCc1ccccc1 | > 100 | 1 10^22/M | > 100 | 
COc1cc(N2CCN(C)CC2)ccc1-n1ccc(=O)c(O)c1C | > 100 | 1.88 10^22/M | > 100 | 
Cc1c(O)c(=O)ccn1CC1CCCCC1 | > 100 | 1.32 10^22/M | > 100 | 
Cc1c(O)c(=O)ccn1CCN(C)C | > 100 | 1.21 10^22/M | > 100 | 
Cc1c(O)c(=O)ccn1-c1ccc(N(C)C)cc1 | > 100 | 0.98 10^22/M | 45 | 
CCc1c(O)c(=O)ccn1CCc1ccccc1 | > 100 | 1.69 10^22/M | > 100 | 
Cc1c(C)c2c(c(C)c1O)CCC(C)(C(=O)O)O2 (centres undefined) [TROLOX] |  |  |  | IC50 [4]: 33.7 µM
Cc1c(O)c(=O)ccn1-c1ccc(OC2CCN(C)C2)cc1 (centres undefined) | > 100 | 1.35 10^22/M | > 100 | 
Cc1c(O)c(=O)ccn1-c1ccc(N2CCN(C)CC2)c(F)c1 | > 100 | 1.17 10^22/M | 93 | 
Cc1c(O)c(=O)ccn1C [DEFERIPRONE] | > 100 | 1.52 10^22/M | > 100 | Activity [7]: Toxic; IC50 [4]: 16 µM; Activity (Mus musculus [8]): 18%; Activity (Mus musculus [9]): 19%
Cc1c(O)c(=O)ccn1-c1ccc(NCCN(C)C)cc1 | > 100 | 1.4 10^22/M | 35 | 
Cc1c(O)c(=O)ccn1-c1ccc(OCCN2CCCCC2)cc1 | > 100 | 2.23 10^22/M | 86 | 
Cc1c(O)c(=O)ccn1-c1ccc(N2CCN(C)CC2)cc1 | 81 | 1.3 10^22/M | 60 | Activity (HK-2 [10]): Active
Cc1c(O)c(=O)ccn1-c1ccc(N(C)CCO)cc1 | > 100 | 1.15 10^22/M | 46 | 
Cc1c(O)c(=O)ccn1-c1ccc(OCC2CCN(C)CC2)cc1 | > 100 | 1.12 10^22/M | 43 | 
Cc1c(O)c(=O)ccn1-c1ccc(OCCOCCN(C)C)cc1 | 68 | 1.79 10^22/M | 28 | IC50 [4]: 22.2 µM; Ratio IC50 [5]: 1.5; Activity (HK-2 [6]): Active
Cc1c(O)c(=O)ccn1-c1ccc(N(C)CCN(C)C)cc1.Cl | > 100 | 1.16 10^22/M | 20 | Activity [11]: Non-Toxic; Activity [12]: Dose-Dependent Effect; Activity [13]: Non-Toxic; Activity (Mus musculus [14]): 44%; Activity (Mus musculus [15]): 68%; IC50 [4]: 12.3 µM; Activity [16]: Non-Toxic; Activity (Mus musculus [17]): Active; Activity (Mus musculus [18]): Active; Activity (Mus musculus [19]): Active; Ratio IC50 [5]: 1.5; Activity (Mus musculus [20]): Active; Activity (Mus musculus [21]): Active; Activity [22]: Non-Toxic; Activity (Mus musculus [23]): Active; Activity (Mus musculus [24]): 14%; Activity (HK-2 [6]): Active; Activity (HK-2 [25]): Active; Activity (Mus musculus [26]): 19%
Cc1c(O)c(=O)ccn1-c1ccc(N2CCOCC2)cc1 | > 100 | 1.33 10^22/M | 58 | 
Cc1c(O)c(=O)ccn1-c1ccc(OCCN(C)C)cc1 | > 100 | 1.37 10^22/M | 18 | IC50 [4]: 22.9 µM; Ratio IC50 [5]: 1.5; Activity (HK-2 [6]): Active
